Measured values reported in US20150018398A1, “METHODS OF USING ESTROGEN RECEPTOR-BETA LIGANDS AS RADIATION MITIGATORS” (The Regents of the University of California, priority 2013, published 2015).
Entries after “also recorded” stand apart in the source; their conditions may differ.

What was measured:
[1] = system: human vascular endothelial cells (HUVEC); experiment: Cell survival after irradiation, drug given 24 h after RT (HUVEC); assay type: cell-based; conditions: for cell survival post-radiation (radiation mitigation): HUVEC, treatment at 24 hours after irradiation, P<0.001
Excerpt: (§1) FIGS. 6A-6B. […] 15; 59(6):1347-55).
(§2) ER-selective ligands increase survival of epithelial and endothelial cells post-radiation.

[2] = system: H23 lung epithelial cells; experiment: Cell survival after irradiation (H23 lung epithelial cells); assay type: cell-based, human; conditions: P<0.001; for lung cell survival post-radiation: H23, pre-treatment before irradiation
Excerpt: as §1, §2

[3] = system: normal human bronchial epithelial (NHBE) cells; experiment: Cell viability after irradiation (NHBE cells); assay type: cell-based; conditions: 5 nM for 2 h before irradiation (2 Gy), up to 48 h
Excerpt: An additional experiment was done using normal human bronchial epithelial (NHBE) cells (see FIG. 7). […] These collective findings support the underlying hypothesis on the role of ERβ signaling in modulating radiation sensitivity.

[4] = system: H23 lung epithelial cells with ERβ silencing (ERbKD); experiment: Cell survival after irradiation with ERβ siRNA knockdown; assay type: cell-based, human; conditions: lung epithelial cells treated with siRNA to suppress ERβ expression
Method: FIG. 8. H23 lung epithelial cells were transfected with control non-specific siRNAs (CON) or smart-pool ESR2 [ERβ] siRNA for ERβ silencing (ERbKD) as before (31,32); control cells were then treated with or without estradiol (E2) and compared with ERbKD cells treated with estradiol for 2 hrs before irradiation at 0-15 Gy as indicated in the figure (n=3 experiments); surviving cell fractions (%) are plotted on a log scale at increasing radiation doses.
To further assess the role of ERβ as a radioprotector and potential radiation mitigator, lung epithelial cells were treated with small inhibitory RNAs (siRNA) to suppress ERβ expression using established methods (Márquez-Garbán D C, Chen H W, Fishbein M C, Goodglick L, Pietras R J. Steroids. 2007 February; 72(2):135-43. Epub 2007 Feb. 5; Márquez D C, Chen H W, Curran E M, Welshons W V, Pietras R J. Mol Cell Endocrinol. 2006 Feb. 26; 246(1-2):91-100. Epub 2006 Jan. 4). […] Thus, ERβ appears to play a critical role in mediating effects of estrogen post-irradiation.

[5] = system: radiation-damaged reporter DNA in H23 lung cells; experiment: Reporter DNA repair assay; assay type: cell-based, human; conditions: 24 h after transfection, 2 nM E2, 0.5 nM DPN or ERB
Excerpt: FIG. 9. […] 15; 59(6):1347-55); data are from 3 experiments (mean±SEM).

lung cells = experiment: TUNEL assay of apoptosis after RT; assay type: cell-based; conditions: E2 10 nM, DPN 1 μM, PPT 1 μM for 2 h, then 15 Gy, TUNEL after 48 h
Excerpt: Cell death is a measurable outcome due to significant radiation injury.

[6] = system: VEGF secretion by H23 lung epithelial cells; experiment: VEGF secretion by ELISA after irradiation; assay type: cell-based, human; conditions: for VEGF secretion after irradiation: H23, treated 2 hrs before irradiation (10 Gy), ELISA after 24 hrs; for increase in vascular endothelial growth factor (VEGF) secretion: lung epithelial cells pre-treated (E2 2 nM, DPN 5 nM, 2 hrs) before irradiation (10 Gy), P<0.001
C3H mice = experiment: Survival after lethal TBI, C3H mice; assay type: in vivo; conditions: for lethality and survival after TBI: male C3H mice, 7.725 Gy TBI, DPN 10 mg/kg SC or ERB-041 50 mg/kg oral gavage daily for 5 days starting 24 h after TBI
Excerpt: C3H mice were bred and maintained in a strict defined-flora, pathogen-free environment in the AALAC-accredited animal facilities. The UCLA ARC approved all experiments which were done in accord with all local and national guidelines for care and use of animals. Male mice, 9-10 wks old, received 7.725 Gy TBI from a Gamma Cell 40 irradiator (^137Cs source; Atomic Energy of Canada) at a dose rate of 67 cGy/min. […] Mice were monitored for up to 60 days using standard criteria for humane euthanasia as an endpoint and weights were recorded twice/week.

C57/BL6 mice = experiment: Survival after lethal TBI, C57/BL6 mice; assay type: in vivo; conditions: male C57/BL6 mice; 8.5 Gy TBI; DPN 10 mg/kg SC or ERB-041 50 mg/kg oral gavage daily for 5 days starting 24 hours after TBI; 30 days
Excerpt: FIG. 15. […] Mice (n=8/group) received 8.5 Gy TBI. […] Controls received appropriate vehicle treatment (e.g. SC [CON SC] or OG [CON OG].
To validate our results above using a different animal model, we used C57/BL6 mice that were also bred and maintained in our AALAC-accredited animal facilities. As above, the UCLA ARC approved all studies. Male mice, 9 weeks-old, in a well-ventilated Lucite chamber without anesthesia received 8.5 Gy TBI from a Gamma Cell 40 irradiator (^137Cs source; Atomic Energy of Canada) at a dose rate of 67 cGy/min. […] Mice were monitored for 30 days using standard criteria for humane euthanasia as an endpoint and weights were recorded twice/week. […] These preliminary findings (FIGS. 14 & 15) provide good evidence to pursue further investigation of ERβ ligands as radiation mitigators.

[7] = system: ERβ-EGFR interaction in H23 lung tumor cells; experiment: ERβ-EGFR co-immunoprecipitation; assay type: cell-based, human; conditions: DPN treatment
Method: EGF stimulates ERβ-EGFR interaction in epithelial cells. To assess the idea that ERβ interacts with EGFR to promote cross-talk in signaling, the association of these molecules in co-immunoprecipitation studies was tested in vitro (Márquez D C, Lee J, Lin T, Pietras R J. Endocrine. 2001 November; 16(2):73-81) (FIG. 4).

[8] = system: phospho-serine-1981-ATM (PS-ATM) in A549 cells; experiment: RT-induced ATM activation (PS-ATM staining); assay type: cell-based, human; conditions: treated 2 h, 5 Gy, stained 2 h after radiation, E2 10 nM, DPN/PPT 1 μM
Method: Phosphoryaltion of ATM is a critical first step in cell responses to RT (FIG. 3). Lung cells treated with control or estrogen for 2 hr were then irradiated and examined after 2 h for ATM activation (FIG. 10).

[9] = system: MDM2 in A549 lung epithelial cells; experiment: MDM2 expression by Western blot; assay type: cell-based, human; conditions: E2 10 nM, DPN or PPT 1 μM for 24 h
Excerpt: Estrogens modulate MDM2 expression in lung cells. MDM2 is well known to bind and inhibit p53 FIG. 3). ERα binds and regulates the MDM2 promoter to stimulate MDM2 expression (see FIG. 12). Indeed, MDM2 SNP309 is reported to occur in an ER binding region of the MDM2 promoter, and affected individuals with SNP309 have increased MDM2 levels mediated by estrogen signaling (33,34).

[10] = in vivo; cited from earlier work
[11] = system: sublethally-irradiated mice; conditions: treatment 24 h before RT; cited from earlier work
ERα = target: T1, ERα (Homo sapiens, UniProt P03372); conditions: Harrington et al. 2003; cited from earlier work
T1 sequence (P03372 1-595): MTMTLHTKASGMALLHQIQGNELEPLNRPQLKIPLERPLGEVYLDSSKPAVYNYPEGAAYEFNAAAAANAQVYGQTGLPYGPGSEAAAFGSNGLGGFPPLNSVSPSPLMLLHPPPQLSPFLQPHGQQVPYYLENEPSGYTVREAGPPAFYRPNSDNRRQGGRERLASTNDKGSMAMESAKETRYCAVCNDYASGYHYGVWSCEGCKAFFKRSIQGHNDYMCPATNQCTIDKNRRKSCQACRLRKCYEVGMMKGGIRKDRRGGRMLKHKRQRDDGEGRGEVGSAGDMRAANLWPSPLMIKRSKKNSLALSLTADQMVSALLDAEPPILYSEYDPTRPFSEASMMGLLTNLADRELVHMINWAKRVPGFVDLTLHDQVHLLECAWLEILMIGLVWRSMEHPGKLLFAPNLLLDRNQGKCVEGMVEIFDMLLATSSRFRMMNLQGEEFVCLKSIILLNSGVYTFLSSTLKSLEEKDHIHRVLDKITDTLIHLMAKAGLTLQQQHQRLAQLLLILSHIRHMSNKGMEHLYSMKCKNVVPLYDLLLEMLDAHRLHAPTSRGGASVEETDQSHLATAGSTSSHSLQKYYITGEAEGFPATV

Q: What does the source list for N#CC(Cc1ccc(O)cc1)c1ccc(O)cc1 (stereo not shown) [DPN, 2,3-bis[4-hydroxyphenyl]-propionitrile]?
A: cell survival post-radiation (radiation mitigation) [1]: mitigates these effects in HUVEC cells; Cell survival ([1]; normal human lung epithelial and vascular endothelial cells in vitro, treatment at 24-hr after irradiation, vs controls P<0.001): significantly improved in a dose-dependent fashion; lung cell survival post-radiation [2]: dose-dependent increase in lung cell survival post-radiation; effect as a radiation mitigator ([2]; H23 cells, treatment at 24 hrs after irradiation, two experiments): comparable effect as a radiation mitigator; cell viability / protection from radiation injury ([3]; P<0.001): protect normal epithelial cells from radiation injury; also recorded: significantly different from control; radioprotective / radiation mitigator effect in cells with ERβ knockdown [4]: abolished; repair of radiation-damaged reporter DNA [5]: stimulation of enhanced DNA repair after irradiation; also recorded: stimulates repair of radiation-damaged reporter DNA; radiation-induced apoptosis (lung cells): showed efficacy in suppressing radiation-induced apoptosis; also recorded: reduce radiation-induced apoptosis; VEGF secretion after irradiation [6]: stimulate high levels of VEGF secretion; increase in vascular endothelial growth factor (VEGF) secretion [6]: 2 fold; VEGF secretion, treatment after irradiation ([6]; treatment at 24 hours after irradiation (10 Gy), vs controls P<0.001): comparable increase in VEGF secretion; also recorded: significant increase in VEGF secretion; lethality and survival after TBI (C3H mice): protected mice from lethality and improved survival; post-irradiation survival (C3H mice; mouse models in vivo, subcutaneous, treatment started 24 hours after TBI): 100%; post-irradiation time window (C3H mice; radiation mitigator): > 24 h; lethality and survival after TBI (C57/BL6 mice): protects mice from lethality and improves survival; interaction of ER-beta with EGFR [7]: promotes interaction of ERβ with EGFR; also recorded: promotes interaction of ER-beta with EGFR

Q: Which results are given for C[C@]12CC[C@@H]3c4ccc(O)cc4CC[C@H]3[C@@H]1CC[C@@H]2O [E2, estradiol-17β]?
A: radioprotective / radiation mitigator effect in cells with ERβ knockdown [4]: failed to show a radioprotective effect; repair of radiation-damaged reporter DNA [5]: stimulation of enhanced DNA repair after irradiation; repair of radiation-damaged reporter DNA ([5]; listed as Estrogen): stimulate repair of radiation-damaged reporter DNA; ATM phosphorylation at serine 1981 (nuclear clustering of PS-ATM) after irradiation [8]: increased; radiation-induced apoptosis (lung cells): showed efficacy in suppressing radiation-induced apoptosis; MDM2 levels [9]: stimulate MDM2 levels; VEGF secretion after irradiation [6]: stimulate high levels of VEGF secretion; increase in vascular endothelial growth factor (VEGF) secretion [6]: 2 fold

Q: Which results are given for C=Cc1cc(O)cc2nc(-c3ccc(O)c(F)c3)oc12 [ERB-041, (4Z)-4-(7-ethenyl-5-hydroxy-3H-1,3-benzoxazol-2-ylidene)-2-fluorocyclohexa-2,5-dien-1-one]?
A: cell survival post-radiation (radiation mitigation) [1]: mitigates these effects in HUVEC cells; lung cell survival post-radiation [2]: dose-dependent increase in lung cell survival post-radiation; cell viability / protection from radiation injury ([3]; P<0.001): protect normal epithelial cells from radiation injury; cell viability / protection from radiation injury ([3]; P<0.001, listed as ERB): significantly different from control; repair of radiation-damaged reporter DNA [5]: stimulation of enhanced DNA repair after irradiation; lethality and survival after TBI (C3H mice): somewhat less efficacious as a radiation mitigator; lethality and survival after TBI (C57/BL6 mice): somewhat less efficacious as a radiation mitigator; oral bioavailability [10]: notable oral bioavailability

Q: Which “survival of irradiated mice” value [11] does the source give for O=c1c(-c2ccc(O)cc2)coc2cc(O)cc(O)c12 [Genistein] here?
A: increased survival without other significant toxicity

Q: Which “ATM phosphorylation at serine 1981 (nuclear clustering of PS-ATM) after irradiation” value [8] does the source give for CCCc1c(-c2ccc(O)cc2)nn(-c2ccc(O)cc2)c1-c1ccc(O)cc1 [PPT, Propylpryazoletriol] here?
A: not

Q: And the radiation-induced apoptosis (lung cells)?
A: showed efficacy in suppressing radiation-induced apoptosis

Q: And the MDM2 levels [9]?
A: stimulate MDM2 levels

Q: And the ERα agonism (ERα)?
A: potent ERα agonist
